{"source": "patent US20180110754A1", "about": "“CENICRIVIROC FOR THE TREATMENT OF FIBROSIS” (Tobira Therapeutics, Inc., priority 2015, published 2018)", "key": {"[1]": {"tested_on": "CC14-induced acute liver injury", "test": "CC14-induced acute liver injury in mice", "type": "in vivo, C57BL/6J mice", "settings": "CVC 100 mg/kg oral, 36h after CC14; vehicle 5.49%±0.49", "experimental": "Liver injury and immune cell phenotypes were analyzed. For mechanistic studies, monocyte-derived macrophage subsets and resident macrophages (Kupffer cells) were sorted by FACS from injured livers and subjected to array-based Nanostring gene expression analysis."}, "CCR1": {"molecular_target": "CCR1 (Homo sapiens, UniProt P32246)", "sequence (P32246 whole entry)": "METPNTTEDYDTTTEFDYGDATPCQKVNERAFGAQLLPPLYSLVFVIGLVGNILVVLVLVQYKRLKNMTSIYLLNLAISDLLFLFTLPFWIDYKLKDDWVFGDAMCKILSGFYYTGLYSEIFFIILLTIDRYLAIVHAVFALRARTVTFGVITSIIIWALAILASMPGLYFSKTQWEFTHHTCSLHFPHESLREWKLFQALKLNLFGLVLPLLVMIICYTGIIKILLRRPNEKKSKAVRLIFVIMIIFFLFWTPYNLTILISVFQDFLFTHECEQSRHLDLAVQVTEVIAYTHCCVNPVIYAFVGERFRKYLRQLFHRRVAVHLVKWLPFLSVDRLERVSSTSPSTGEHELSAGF", "test": "Inhibition of ligand binding to CCR1"}, "[2]": {"tested_on": "thioglycollate-induced peritonitis (monocyte/macrophage and leukocyte recruitment)", "test": "Mouse thioglycollate-induced peritonitis model: peritoneal lavage cell counts, body weight", "type": "in vivo", "experimental": "Summary: The mouse thioglycollate induced peritonitis model is a commonly used preclinical model to assess the recruitment of […] cells and to assess the activation of macrophages.\nDexamethasone was used as a positive control in this experiment as it is a corticosteroid known to reduce inflammation in a variety of animal models. Murine inflammation models indicate that the effective dose range for dexamethasone, when administered orally, is 0.3 to 3 mg/kg QD. On this basis, an intermediate dose of 1 mg/kg was chosen for this particular study.\nThe lavage was repeated with a second injection of 2.5 mL via the initial puncture site and the samples were pooled for each animal.\nThe lavage fluid was placed on wet ice pending processing for total and differential cell counts using the Advia analyzer. Following the lavage collection, a blood sample (0.7 mL) was collected from each mouse by intracardiac puncture or from the vena cava (collection time was recorded). 0.5 mL of blood was placed in an EDTA tube, transferred to clinical pathology and analyzed for differential cell counts using the Advia analyzer. 0.2 mL of blood was placed in a K2EDTA tube and processed to plasma. The plasma was collected by centrifugation (3000 rpm for 10 minutes at 4° C.) and placed on dry ice. […] After blood collection, the animals were then exsanguinated by sectioning of the abdominal aorta.\nStatistical Analysis: One-way ANOVA with post-hoc Dunnett's statistical analysis was performed on differential cell counts obtained from lavage and blood samples. The analysis was performed in comparison to Group 2."}, "[3]": {"tested_on": "APAP-induced acute liver injury", "test": "Acetaminophen (APAP)-induced acute liver injury in mice", "type": "in vivo, C57BL/6J mice", "experimental": "Methods: […] […] Liver injury and immune cell phenotypes were analyzed. For mechanistic studies, monocyte-derived macrophage subsets and resident macrophages (Kupffer cells) were sorted by FACS from injured livers and subjected to array-based Nanostring gene expression analysis. […] The human counterparts of both agents are currently tested in phase II trials for different indications (diabetic nephropathy or NASH, respectively)."}, "[4]": {"test": "Tissue distribution in rodents", "type": "in vivo"}, "HIV-1": {"tested_on": "HIV-1", "test": "Study 201 Phase 2a 10-day monotherapy: HIV-1 RNA and resistance", "type": "in vivo, human", "settings": "for Median nadir change from baseline in HIV-1 RNA: 10 days", "experimental": "Participants were required to be antiretroviral treatment-experienced, CCR5 antagonist-naive, with HIV-1 RNA levels of at least 5000 copies/mL and CD4+ cell counts of at least 250 cells/mm^3 was performed.\nIn Study 201, drug resistance testing was performed at Baseline, Day 7, and Day 40 (or at the “Early Termination” visit, if applicable)."}, "[5]": {"tested_on": "unilateral ureter occlusion (UUO) renal fibrosis", "test": "Mouse UUO model of renal fibrosis", "type": "in vivo, CD-1 mice", "experimental": "Test animals were allocated to weight-matched treatment groups on the day prior to the surgical procedure (Day-1). Male CD-1 mice (N=51; age, 7-8 weeks) underwent either sham surgery or total ligation of the right ureter, i.e. UUO, via aseptic laparotomy (FIG. 12). […] Another group received the anti-transforming growth factor TGF-β1 antibody, compound 1D11 (positive control) at 3 mg/kg/day from Days-1 to 4, injected intraperitoneally once daily, and vehicle control from Days 0 to 5. […] On Day 5, animals were anaesthetized, blood and tissues were collected prior to sacrifice.\nStudy endpoints included: a) body and kidney weights; b) fibrosis in obstructed kidney evaluated via histological quantitative image analysis of picrosirius red staining (ten images/depth/kidney obtained and assessed in a blinded fashion using light microscopy [at 200×] to enable sampling of 60-70% of the renal cortical area) and quantified by a composite Collagen Volume Fraction (CVF [% total area imaged]) score expressed as the average positive stain across three anatomically distinct ([…] apart) tissue sections, or depths, from the obstructed kidney; c) hydroxyproline content of frozen renal cortical tissue biopsies as assessed by biochemical analyses; d) mRNA expression of profibrotic and inflammatory biomarkers (including MCP-1, Collagen 1a1, Collagen 3a1, TGF-β1, Fibronectin-1, α-smooth muscle actin (α-SMA) and connective tissue growth factor-1 (CTGF-1); assessed via Luminex® (Life Technologies™, Carlsbad, Calif., USA) assay with relative expression normalised to HPRT (hypoxanthine phosphoribosyltransferase).\nData are expressed as mean±standard error of mean (SEM). Statistical analyses were performed using GraphPad Prism® (GraphPad Software, Inc., San Diego, Calif., USA). Treatment differences between sham-surgery+vehiclecontrol and UUO+vehicle-control groups, and between UUO+vehicle-control and UUO+compound-1D11 (positive control) groups, were analysed by unpaired t-Test. Treatment differences between UUO+vehicle-control and CVC-dose groups were analysed by one-way ANOVA (analysis of variance) with Dunnett's test (post-hoc)."}, "[6]": {"test": "Chronic (3- and 9-month) monkey toxicity studies", "type": "in vivo", "settings": "1000 mg/kg/day"}}, "data": [{"smiles": "CCCCOCCOc1ccc(-c2ccc3c(c2)/C=C(/C(=O)Nc2ccc([S@@+]([O-])Cc4cncn4CCC)cc2)CCCN3CC(C)C)cc1", "note": "[CVC, (S)-8-[4-(2-Butoxyethoxy)phenyl]-1-isobutyl-N-(4-{[(1-propyl-1H-imidazol-5-yl)methyl]sulfinyl}phenyl)-1,2,3,4-tetrahydro-1-benzazocine-5-carboxamide]", "values": [{"measurement": "Ly6C+ monocyte-derived macrophages in liver (% of liver leukocytes)", "setting": "[1]", "result": "0.95%±0.14"}, {"measurement": "Inhibition of ligand binding to CCR1", "setting": "CCR1", "result": "did not inhibit"}, {"measurement": "Decrease in monocytes in peritoneal lavage vs thioglycollate control (Group 2)", "setting": "[2]; Group 3 (CVC BID)", "result": 5.7, "unit": "%"}, {"measurement": "Decrease in total leukocytes in peritoneal lavage vs thioglycollate control (Group 2)", "setting": "[2]; Group 3 (CVC BID)", "result": 0.8, "unit": "%"}, {"measurement": "Decrease in monocytes in peritoneal lavage vs thioglycollate control (Group 2)", "setting": "[2]; Group 4 (CVC BID)", "result": 45.2, "unit": "%"}, {"measurement": "Decrease in total leukocytes in peritoneal lavage vs thioglycollate control (Group 2)", "setting": "[2]; Group 4 (CVC BID)", "result": 22.2, "unit": "%"}, {"measurement": "Decrease in monocytes in peritoneal lavage vs thioglycollate control (Group 2)", "setting": "[2]; Group 5 (CVC BID)", "result": 76.5, "unit": "%"}, {"measurement": "Decrease in total leukocytes in peritoneal lavage vs thioglycollate control (Group 2)", "setting": "[2]; Group 5 (CVC BID)", "result": 57.6, "unit": "%"}, {"measurement": "Decrease in monocytes in peritoneal lavage vs thioglycollate control (Group 2)", "setting": "[2]; Group 6 (CVC QD)", "result": 26.0, "unit": "%"}, {"measurement": "Decrease in total leukocytes in peritoneal lavage vs thioglycollate control (Group 2)", "setting": "[2]; Group 6 (CVC QD)", "result": 14.2, "unit": "%"}, {"measurement": "Body weights, Days 1 to 6", "setting": "[2]; mouse, in vivo", "result": "no notable changes in body weights"}, {"measurement": "Reduction of Ly6C+ monocyte-derived macrophages in liver", "setting": "[3]; CC14 and APAP models", "result": "83-84%"}, {"measurement": "Pro-inflammatory Ly6C+ monocytes in blood", "setting": "[3]; CC14 and APAP models, p<0.01", "result": "significantly reduced"}, {"measurement": "Reduction in ALT", "setting": "[3]; CVC 100 mg/kg oral", "result": 75, "unit": "%"}, {"measurement": "Reduction in necrotic area fraction", "setting": "[3]; CVC 100 mg/kg oral", "result": 61, "unit": "%"}, {"measurement": "Ly6C+ monocyte-derived macrophages in liver (% of liver leukocytes)", "setting": "[3]; CVC 100 mg/kg oral, 12h after APAP, vehicle 6.01%±0.66", "result": "0.95%±0.11"}, {"measurement": "Necrotic area fraction", "setting": "[3]; CVC 100 mg/kg oral, vehicle 27.9%±4.05", "result": "10.9%±3.50"}, {"measurement": "Monocyte accumulation in APAP-injured livers", "setting": "[3]; WT mice", "result": "significantly reducing monocyte accumulation"}, {"measurement": "Protection from liver damage (ALT levels)", "setting": "[3]; WT mice, p<0.05 for mNOX, p<0.01 for CVC", "result": "significant protection from liver damage"}, {"measurement": "Tissue distribution", "setting": "[4]", "result": "high distribution in the liver, mesenteric lymph node, and intestine"}, {"measurement": "Median nadir change from baseline in HIV-1 RNA", "setting": "HIV-1; 25 mg once daily", "result": "−0.7", "unit": "log^10 copies/mL"}, {"measurement": "Median nadir change from baseline in HIV-1 RNA", "setting": "HIV-1; 50 mg once daily", "result": "−1.6", "unit": "log^10 copies/mL"}, {"measurement": "Median nadir change from baseline in HIV-1 RNA", "setting": "HIV-1; 75 mg once daily", "result": "−1.8", "unit": "log^10 copies/mL"}, {"measurement": "Median nadir change from baseline in HIV-1 RNA", "setting": "HIV-1; 150 mg once daily", "result": "−1.7", "unit": "log^10 copies/mL"}, {"measurement": "Drug resistance testing (Baseline, Day 7, Day 40)", "setting": "HIV-1; all subjects with evaluable samples", "result": "fully susceptible"}, {"measurement": "Effect on body weight", "setting": "[5]; CVC 7 mg/kg/day, Day 5", "result": "no effect on body weight"}, {"measurement": "Outcome of the 100 mg/kg/day group", "setting": "[5]; CVC 100 mg/kg/day, N=9, after UUO surgery", "result": "terminated early due to moribundity"}, {"measurement": "Effect on UUO-induced increase in obstructed kidney hydroxyproline content", "setting": "[5]; CVC 7 and 20 mg/kg/day", "result": "Neither dose of CVC tested affected UUO-induced increases"}, {"measurement": "Effect on UUO-induced Collagen 1a1, Collagen 3a1, TGF-β1 and Fibronectin-1 mRNA expression", "setting": "[5]; obstructed kidney cortex", "result": "did not reach statistical significance"}, {"measurement": "Effect on UUO-induced MCP-1, α-SMA and CTGF-1 mRNA expression", "setting": "[5]; obstructed kidney cortex", "result": "did not have significant effects"}, {"measurement": "Inflammation in clinical pathology parameters or any tissue incl. liver (microscopic evaluation)", "setting": "[6]", "result": "No indication of inflammation"}, {"measurement": "Plasma MCP-1 levels over controls", "setting": "[6]; 3- and 9-month studies", "result": "~5", "unit": "fold"}]}]}
